Laboratory results: patent publication US20210340130A1, “Compositions and methods for treating attention deficit disorders” (priority 2016, published 2021)

Assays:
adult patients with ADHD = test: Phase 2 randomized, double-blind, 2-period crossover trial in adults with ADHD; format: in vivo
Protocol: *This phase 2 study evaluated the efficacy, tolerability and safety of CX717 in the treatment of adult patients with ADHD. The study was designed and executed as a randomized, double-blind, multi-center, 2-period crossover study comparing 2 doses of CX717 (200 mg, or 800 mg, BID) with placebo. Each treatment period lasted 3 weeks with a 2-week washout in between. Subjects met DSM-IV criteria for adult ADHD and had moderate to severe symptoms. The primary efficacy measure was the change from baseline on the ADHD Rating Scale (ADHD-RS) with adult ADHD prompts.
The present study further examined the clinical efficacy, tolerability and safety of CX717 as a drug treatment for adults with ADHD. […] Each treatment period was 3 weeks in duration with a 2-week washout in between. The study design was modeled after several similarly published ADHD studies with atomoxetine and stimulants, (Spencer et al.) with sample sizes in the mid 20s. Since this is the first such study with CX7171 in ADHD, it is assumed that efficacy would be achieved using historical assumptions in effect size, therefore, a total of 60 subjects were to be randomized.
All patients met DSM-IV criteria for adult ADHD, established by the Adult ADHD Clinical Diagnostic Scale (ACDS) Version 1.2. All patients gave written informed consent prior to enrollment and the conduct of the study was approved by either the […] Review Board (IRB) at each site or by the central IRB. Each subject had at least moderately severe ADHD symptoms (ADHD-RS score of ≥22; Clinician's Global Impression of Severity [CGI-S] score of ≥4). Each subject was male, and between 18-50 years old, inclusively. Male patients were selected because the necessary reproductive toxicology studies that would have allowed women of childbearing potential to be included in the study had not been completed.
CX717 capsules were administered orally as 200 mg BID or 800 mg BID doses. […] The study was divided into a series of periods: screening period—up to 4 weeks, treatment period 1-3 weeks; wash-out period—2 weeks; treatment period 2-3 weeks; follow-up period—approximately 1 week.
The primary efficacy outcome measure was the comparison of each dose of CX717 versus placebo on the change from baseline in ADHD symptoms as measured by the ADHD-RS at Week 3. Secondary efficacy parameters included comparisons of each dose of CX717 versus placebo for the ADHD-RS Inattentiveness Subscale Score of the ADHD-RS.
Safety was evaluated by adverse events (AEs), clinical laboratory tests, vital signs, physical examination, and electrocardiograms (ECGs).
The primary efficacy endpoint was the change from baseline in the ADHD-RS total score. Variables for the primary endpoint as well as for the secondary endpoint were based on within patient comparisons of high dose with placebo and low dose with placebo. The analyses treated subjects receiving high dose or placebo in either order as a unique entity and similarly, subjects who received low dose or placebo in either order as a unique group of its own. The primary efficacy analysis utilized the paired t-test. Descriptive statistics (number of observations, mean, standard deviation, median, minimum and maximum values) for the total score and the change from baseline were calculated by treatment group and visit and the last value was presented for both the intent-to-treat (ITT) and per protocol (PP) populations. All hypotheses testing for change from Baseline of scores, except testing for significant interaction, were performed at the 2-tailed 5% alpha significance level. P-values, based on 2-tailed tests, were rounded to 1 more decimal place than the standard deviation, up to a maximum of 3 decimal places; p-values <0.001 were presented as ‘<0.001’ in all tables.

[1] = Phase 1 studies (safety, tolerability, pharmacokinetics); format: in vivo
Swiss Webster mice = test: PTZ Proconvulsant test; format: in vivo; settings: doses of 30 mg/kg or less, p.o.
Protocol: Follow on studies of CX717 and 1739 are continuing, employing additional well-known models for ADHD drug efficacy, coupled with a variety of ongoing safety studies. Preliminary safety studies already completed have included a range of toxicity studies focusing on critical convulsant risks widely observed for previously-studied ampakines. Using the well known PTZ Proconvulsant test, non-GLP safety studies were conducted to examine proconvulsant activity of CX717. Swiss Webster mice (n=12/group) were dosed with CX717 (3, 10 or 30 mg/kg p.o.), vehicle (0.5% methocel p.o.) or a positive control, CGS8216 (10 mg/kg in 70% PEG300: 30% water i.p.). Thirty minutes later, the GABA-A antagonist, pentylenetetrazol (PTZ) was infused in the tail vein until tonic seizures were observed. The time at which the first clonic and tonic seizure was observed was noted and used to determine the dose of PTZ necessary to induce both clonic and tonic seizure.

[2] = biological target: cytosolic testosterone receptor (Homo sapiens, UniProt P10275); test: Radioligand binding, testosterone receptor; settings: read-out: inhibition of binding of a reference ligand
Chain of cytosolic testosterone receptor (P10275 whole entry): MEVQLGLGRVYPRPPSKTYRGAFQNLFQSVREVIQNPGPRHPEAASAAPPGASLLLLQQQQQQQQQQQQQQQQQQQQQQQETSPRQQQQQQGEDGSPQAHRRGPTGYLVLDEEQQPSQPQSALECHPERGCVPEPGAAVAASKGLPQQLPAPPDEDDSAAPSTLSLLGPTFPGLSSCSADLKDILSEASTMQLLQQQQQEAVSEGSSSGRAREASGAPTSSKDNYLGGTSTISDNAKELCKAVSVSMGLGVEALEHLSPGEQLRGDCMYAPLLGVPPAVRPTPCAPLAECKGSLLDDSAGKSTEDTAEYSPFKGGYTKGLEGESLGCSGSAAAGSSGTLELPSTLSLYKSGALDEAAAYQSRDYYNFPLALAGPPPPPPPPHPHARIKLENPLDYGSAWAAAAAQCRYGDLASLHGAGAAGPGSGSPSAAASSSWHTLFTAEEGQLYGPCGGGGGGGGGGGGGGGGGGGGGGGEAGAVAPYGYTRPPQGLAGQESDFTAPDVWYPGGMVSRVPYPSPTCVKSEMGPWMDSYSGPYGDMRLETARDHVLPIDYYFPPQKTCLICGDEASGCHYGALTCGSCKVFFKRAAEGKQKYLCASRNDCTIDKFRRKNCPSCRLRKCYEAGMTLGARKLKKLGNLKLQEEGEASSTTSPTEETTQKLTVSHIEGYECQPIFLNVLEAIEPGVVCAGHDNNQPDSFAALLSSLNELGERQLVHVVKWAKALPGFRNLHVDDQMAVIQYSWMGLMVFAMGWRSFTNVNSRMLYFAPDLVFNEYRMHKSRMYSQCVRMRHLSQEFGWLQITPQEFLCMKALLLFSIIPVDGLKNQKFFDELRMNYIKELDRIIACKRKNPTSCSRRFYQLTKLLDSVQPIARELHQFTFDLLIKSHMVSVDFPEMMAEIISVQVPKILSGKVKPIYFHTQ

64 GPCRs = test: Cell-based functional GPCR assays (Table 4.2.2-1); settings: agonist at 30 μM, antagonist at 37.5 μM; 64 functional GPCR assays
Protocol: Additional studies involving G-protein coupled receptor assays were conducted for CX1739 to further illustrate the scope and flexibility of binding activity profiling available for ampakine screening according to the invention. CX1739 was evaluated in a second broad in vitro pharmacology screen, comprising cell-based functional G-protein coupled receptor assays for 64 GPCRs, identified in Table 4.2.2-1 below.

[3] = tested on: non-selective alpha1 adrenergic receptor; test: Radioligand binding, alpha1 adrenergic receptor; settings: 100 μM

In the case of `O=C(c1ccc2nonc2c1)N1CCOCC1` [CX717, 1-(benzofurazan-5-ylcarbonyl)morpholine], the “ADHD-RS total and subscales versus placebo” value (adult patients with ADHD; 200 mg BID) is reported as “no statistically significant differences”, the “deaths or serious adverse events” value (adult patients with ADHD; 200 mg or 800 mg BID for 3 weeks) is reported as “No deaths or serious adverse events” and the “total ADHD-RS, repeated measures analysis at endpoint” value (adult patients with ADHD; 800 mg BID vs placebo, p=0.002) is reported as “superior efficacy compared to placebo”. The “ADHD-RS hyperactivity subscale, repeated measures analysis” value (adult patients with ADHD; 800 mg BID vs placebo, p=0.017) was “superior efficacy compared to placebo”, the “ADHD-RS inattentiveness subscale, repeated measures analysis” value (adult patients with ADHD; 800 mg BID vs placebo, p=0.027) was “superior efficacy compared to placebo” and the “mean change from baseline of ADHR-RS total score” value (adult patients with ADHD; 800 mg, 504 h) was −9.95. The “ADHD-RS hyperactivity subscale mean difference vs placebo” value (adult patients with ADHD; active dose vs. placebo, last value) was 1.94, the “tolerability and safety parameters” value (adult patients with ADHD; either dose (200 mg or 800 mg BID), 3 weeks) was “well tolerated with no clinically significant changes in cardiovascular and other safety parameters” and the “overall incidence of treatment-emergent adverse events (TEAEs)” value (adult patients with ADHD; high dose (800 mg BID), placebo high dose 56%) was 75%. The “ADHD-RS hyperactivity subscale mean difference vs placebo” value (adult patients with ADHD; high dose, Week 1) was 2.00, the “ADHD-RS hyperactivity subscale mean score (change from baseline)” value (adult patients with ADHD; high dose, Week 1, ITT, placebo −2.22, p=0.192) was −4.22 and the “ADHD-RS hyperactivity subscale mean difference vs placebo” value (adult patients with ADHD; high dose, Week 3) was 3.18. For the same compound, the “ADHD-RS hyperactivity subscale mean score (change from baseline)” value (adult patients with ADHD; high dose, Week 3, ITT, placebo −2.78, p=0.050) was −5.68, the “difference from placebo in mean change of ADHR-RS total score” value (adult patients with ADHD; high dose, after 3 weeks) was −4.73 and the “ADHD-RS hyperactivity subscale mean difference vs placebo” value (adult patients with ADHD; high dose, last value) was 3.00. The “most frequently reported adverse events” value (adult patients with ADHD; in vivo) was “Sleep disturbances and headache”, the “ADHD-RS hyperactivity subscale versus placebo, repeated measures” value (adult patients with ADHD; low dose) was “No difference” and the “ADHD-RS total score versus placebo” value (adult patients with ADHD; low dose (200 mg BID)) was “did not differ from placebo”. For the same compound, the “overall incidence of treatment-emergent adverse events (TEAEs)” value (adult patients with ADHD; low dose (200 mg BID), placebo low dose 55%) was 73%, the absorption ([1]; human) was “dose-proportional manner” and the half-life ([1]; human, in vivo, read-out: elimination half-life (t1/2)) was 9 to 10 h. For the same compound, the Tmax ([1]; human, in vivo, read-out: time-to-maximum concentration (tmax)) was 4 to 5 h, the “tolerability in healthy volunteers” value ([1]; in vivo) was “well-tolerated with no serious AEs” and the “proconvulsant activity: dose of PTZ required to elicit a seizure” value (Swiss Webster mice) was “did not decrease the dose of PTZ required to elicit a seizure”.

With `CN(C(=O)c1ccc2nonc2c1)C1CCOCC1` [CX1739, N-Methyl-N-tetrahydro-2H-pyran-4-yl-[2,1,3]-benzoxadiazole-5-carboxamide] the inhibition at 100 µM [2] was 64%, the “GPCR agonist and antagonist activity” value (64 GPCRs) was “did not exhibit any significant agonist or antagonist activity” and the “inhibition of binding of a reference ligand” value [3] was 67%.
